Data from patent US11104656B2, “Method for purifying and removing color of FDCA” (Nederlandse Organisatie voor …, priority 2017, dated 2021).

Experiments:
Type in all cases: physicochemical
[1] = Influence of heating time on color of the precipitate after cooling; conditions: 200 mg FDCA in 2 mL H2O, 140-180° C., 5-15 min, prolonged heating
Description: In another experiment, the influence of heating time on the color of the precipitate after cooling was investigated. A total of nine samples were prepared by mixing 200 mg of FDCA in 2 mL H2O. [table]

[2] = Solubility of FDCA in water at different temperatures; conditions: water as solvent, temperatures beyond 130° C.
Source text: The inventors realized that it is desirable for FDCA crystallization to use superheating for dissolving FDCA. FDCA may show a significant increase in solubility above superheating conditions. […] The byproduct is colored and its formation is therefore undesirable both in view of purity and color.

[3] = Influence of heating time on decomposition (FDCA in water at 130° C.); conditions: for appearance of solution on heating (decomposition): deionised water
Description: In a reaction vessel, 60 mg of FDCA was dissolved over time in 3 ml of deionised water at a temperature of 130° C. On heating, around 5 minutes was needed to allow the solid to dissolve. Following this, samples were taken at 12, 15, 18 and 21 minutes. The samples were photographed at these intervals (FIG. 4).

Compound: O=C(O)c1ccc(C(=O)O)o1 [FDCA, 2,5-furandicarboxylic acid]
- by-product formation after heating and cooling [1]: formation of black solid by-products
- solubility of FDCA [2]: increases dramatically
- time needed to allow the solid to dissolve ([3]; 60 mg FDCA in 3 ml deionised water): around 5 minutes
- appearance of solution on heating (decomposition) ([3]; after 12 minutes): a light solution is observed
- appearance of solution on heating (decomposition) ([3]; after 15 minutes): some black solid by-products started to form
- appearance of solution on heating (decomposition) ([3]; after 18 minutes): clearly darker brown in color
